Columns and labels:
[1] = test system: IMQ-induced psoriasis mouse model; assay: IMQ-induced psoriasis mouse model, PASI score of compound ointments applied to skin; format: in vivo; conditions: ointment 20 mg/g, 50 mg, skin smear BID, day 1 to day 9; BALB/c mice, 5% IMQ cream; Two-way ANOVA p<0.05
Description: Efficacy Evaluation Study of Ointment Transdermal Patch Formulated by Compounds Using IMQ-Induced Psoriasis Mouse Model
BALB/c mice (male) aged 6-8 weeks were selected to have depilated back skin with an area of 2×3 cm. 5% IMQ cream 62.5 mg was applied once a day for 9 consecutive days for model induction. Mice were housed in an SPF-grade animal room in IVC cages at a temperature of 20-26° C. and a humidity of 40-70% under a 12-hour light-dark cycle. Diet ad libitum, except where fasting is required.
Mice were randomly divided into groups, a number of 8 mice, administration concentration 20 mg/g, administration amount 50 mg, administration route, and frequency: skin smear, BID. The positive control was compound dexamethasone acetate (Dex) cream which is a commercially available product with a Dex content of 0.75 mg/g (999 Piyanping, Sanjiu Pharmaceutical). Dosing started from day 1 (the first day) (the day of model induction) to day 9.
2. Preparation of Test Ointment
Topical preparations are mostly semi-solid dosage forms. The base and solvent of a semi-solid dosage form are generally widely used in medicine and daily chemical products. The excipients which can be added are also the common excipients in the manual of excipients. Therefore, the patent compounds are prepared into corresponding test ointments. The ointment compound was dissolved with diisopropyl adipate to prepare a vaseline-based ointment. In order to improve the stability of the ointment, microcrystalline cellulose was added as an excipient in the formulation. The white vaseline has a melting point of 45-60° C. The solution, white vaseline, and microcrystalline cellulose are thoroughly mixed while the vaseline is in a molten state. After cooling to solidification, it was divided into an aluminum ointment, and the specific weight ratios of base, solvent, and excipients are shown in Table 4.
Dorsal modeling site skin PASI was performed on the experimental animals.
Statistical analysis of PASI scores was performed using Two-way ANOVA. All data were analyzed using GraphPad Prism 8.0 software with a p<0.05 significant difference (*, p<0.05; **, p<0.01).
The PASI score curves of CPD-029, CPD-028, CPD-027, CPD-017, and CPD-002 compared with the model group, excipient group, and Dex cream group are shown in FIGS. 1, 2, 3, 4, and 5, respectively. Among them, the model group was treated with 62.5 mg of 5% IMQ cream applied to the back skin of mice once daily to induce psoriasis, and the excipient group was treated with 15% (w/w) diisopropyl adipate, 80% vaseline, and […].

[2] = Hydrolysis rate / drug release rate of the compounds (release of JAK inhibitor, HPLC); format: physicochemical; conditions: % release of JAK inhibitor from sample in acetonitrile/water=7/3 (v/v), 37° C. constant temperature shaker, sampled days 1-4, HPLC
Outline: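 Compounds (about 5 mg per 20 mL) were dissolved in acetonitrile/water 7/3 (v/v) and held sealed at 37° C in a shaker, sampled on days 0, 1, 2, 3 and 4. Released JAK inhibitor was quantified by HPLC peak area against a 0.0002–0.08 mg/mL reference curve and expressed as % release corrected for molecular weights.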

| Release Rate (%/day) [2] [%/day] | SMILES | PASI score: therapeutic effect compared with the excipient group [1] |
| --- | --- | --- |
| 8.5 | CC(C)Cc1ccc([C@H](C)C(=O)n2ccc3c(N(C)[C@H]4CN(C(=O)CC#N)CC[C@H]4C)ncnc32)cc1 [Ex. 2, 3-((3R,4R)-3-((7-((S)-2-(4-isobutylphenyl)propanoyl)-7H-pyrrolo[2,3-d]pyrimidin-4-yl) (methyl)amino)-4-methylpiperidin-1-yl)-3-oxopropanenitrile] | significant therapeutic effect in day 4 day 8 |
| 2.44 | CCS(=O)(=O)N1CC(CC#N)(n2cc(-c3ncnc4c3ccn4C(=O)[C@@H](C)c3ccc(CC(C)C)cc3)cn2)C1 [Ex. 17, (S)-2-(1-(ethylsulfonyl)-3-(4-(7-(2-(4-isobutyl-phenyl)propanoyl)-7H-pyrrolo[2,3-d]pyrimidin-4-yl)-1H-pyrazol-1-yl)azetidin-3-yl)acetonitrile] | significant therapeutic effect in day 5-day 10 |
| 7.48 | CNS(=O)(=O)CC1CCC(N(C)c2ncnc3c2ccn3C(=O)[C@@H](C)c2ccc(CC(C)C)cc2)CC1 (stereo partly drawn) [Ex. 27, 1-((1S, 4R)-4-((7-((S)-2-(4-isobutylphenyl)propanoyl)-7H-pyrrolo [2,3-d]pyrimidin-4-yl) (methyl)amino)cyclohexyl)-N-methyl methanesulfonamide] | significant therapeutic effect in day 5-day 10 |
| 2.98 | CC(C)Cc1ccc([C@H](C)C(=O)n2ccc3c(-c4cnn([C@H](CC#N)C5CCCC5)c4)ncnc32)cc1 [Ex. 28] | significant therapeutic effect in day 5-day 10 |
| 7.08 | CCC(C(=O)n1ccc2c(N(C)[C@H]3CN(C(=O)CC#N)CC[C@H]3C)ncnc21)c1ccc(N2Cc3ccccc3C2=O)cc1 (stereo partly drawn) [Ex. 29, 3-((3R, 4R)-4-methyl-3-(methyl (7-(2-(4-(1-oxoisoindolin-2-yl)phenyl)butanoyl)-7H-pyrrolo [2,3-d]pyrimidin-4-yl)amino)piperidin-1-yl)-3-oxopropanenitrile] | significant therapeutic effect in day 5-day 10 |
| 4.29 | CCC(C(=O)n1ccc2c(N3CC[C@]4(C3)[C@@H](C)CN4C(=O)CC#N)ncnc21)c1ccc(N2Cc3ccccc3C2=O)cc1 (stereo partly drawn) [Ex. 143, 3-((3S, 4R)-3-methyl-6-(7-(2-(4-(1-oxoisoindolin-2-yl)phenyl)butanoyl)-7H-pyrrolo [2,3-d]pyrimidin-4-yl)-1,6-diazaspiro [3.4]octan-1-yl)-3-oxopropanenitrile] |  |
| 0.05 | CC(C)Cc1ccc([C@H](C)C(=O)OCn2ccc3c(N4CC[C@]5(C4)[C@@H](C)CN5C(=O)CC#N)ncnc32)cc1 [Ex. 144, (4-((3S, 4R)-1-(2-cyanoacetyl)-3-methyl-1,6-diazaspiro [3.4]octan-6-yl)-7H-pyrrolo [2,3-d]pyrimidin-7-yl) methyl (S)-2-(4-isobutylphenyl) propanoate] |  |

Source: patent US12290519B2, “Anti-inflammatory coupling compound drug, and preparation method therefor and use thereof” (COVAL BIOPHARMA (SHANGHAI) CO., LTD., priority 2021, dated 2025)
